# In patent publication EP4455667B1, “DEVICE FOR DETECTING MOLECULES” (Viscera Technologies Ltd, priority 2023, dated 2024):
# Tests used:
# avidin = avidin (Gallus gallus, UniProt P02701); settings: association constant from literature (Hermanson); cited from earlier work
# [1] = tested on: anti-3-Nitrotyrosine antibody; assay: Lateral flow assay for NHPA in synthetic urine; format: binding
# Method: The LFA was assembled using a nitrocellulose membrane attached to a plastic backing card (Figure 13). An anti-3-Nitrotyrosine antibody line was printed at 1mg/mL concentration, the line consisted of 20 lines, each with 25 µm width, using 0.1 µL antibody solution/cm/line. A streptavidin line was printed at 1mg/mL concentration and consisted of 10 lines, each with 50 µm width, using 0.1 µL streptavidin solution/cm/line. The membrane was sealed in a foil bag with desiccant silica gel sachets and stored in the fridge until used.
# On the test day the wicking pad (5 x 17 mm) was attached to the membrane (2 mm overlap) and the plastic card was cut into strips (5 mm width). Glass fibre conjugate pads (5 x 7 mm) were soaked in AuNP-BSA-biotin-NHPA conjugate (0.5 OD) and dried in a desiccator for 2 hours. The conjugate pad was then attached to the membrane (2mm overlap). […]
# Different concentrations of NHPA in synthetic urine (200 µL) were prepared in respective wells of a low-binding 96-well microplate. […] The images of the test strips (Figure 14) were analysed by ImageJ software. […] The grey level of the pixels in each test line was measured and subtracted from the background to calculate each line intensity and its dependence on the NHPA concentration (Figure 15b).
# anti-caffeine antibody [2] = assay: Competitive ELISA (free caffeine vs caffeine conjugate)
# Method: (§1) A 96-well ELISA plate was coated with anti-caffeine antibody (50 µL, 6 µg/mL, in PBS buffer, pH 7.4) by incubating the plate for 1 hour at RT. The plate was blocked with 2% (w/v) BSA in PBS with 0.05% (v/v) Tween-20, pH 7.4, for 2 hours at RT. BSA-biotin-caffeine conjugate (50 µL) at different concentrations were added to the plate and incubated for 1 hour at RT. HRP-labelled avidin (50 µL, 1:5000 dilution in blocking buffer) was added and the plate was incubated for 1 hour in the dark at RT. After thorough washing of the plate, the colour was developed by adding 3,3',5,5'-tetramethylbenzidine (TMB) liquid substrate system (50 µL). The reaction was stopped by the addition of 1 M H2SO4 (50 µL) and the absorbance at 450 nm was recorded.
# (§2) Same general protocol as direct ELISA. Plate was coated with anti-caffeine antibody (50 µL, 6 µg/mL, in PBS buffer, pH 7.4) and blocked with 2% (w/v) BSA in PBS with 0.05% (v/v) Tween-20, pH 7.4. BSA-biotin-caffeine conjugate (25 µL, 40 mg/mL) was mixed with caffeine (25 µL) at different concentrations of the latter, added to the plate and incubated for 1 hour at RT. HRP-labelled avidin (50 µL, 1:5000 dilution) was added and the colour was developed by adding TMB liquid substrate system (50 µL). The reaction was stopped by the addition of 1 M H2SO4 (50 µL) and the absorbance at 450 nm was recorded.
# (§3) The same ELISA format was used to test the competition of the BSA-biotin-caffeine conjugate and free caffeine for binding to the anti-caffeine antibody coated on the wells. A fixed amount of BSA-biotin-caffeine conjugate (20 µg/mL) was used and the concentration of free caffeine was varied.
# anti-caffeine antibody [3] = assay: Modified competitive lateral flow assay for caffeine with two test lines; format: binding, mouse
# Method: The LFA was assembled using a nitrocellulose membrane attached to a plastic backing card. Anti-caffeine antibody and avidin were immobilised at test lines 1 and 2, respectively, in the detection zone. […] The membrane was dried at RT for 2 hours. The wick was attached to the membrane (2 mm overlap) and the plastic card was cut into strips (5 mm x 60 mm). Glass fibre conjugate pads were soaked in 30% (w/v) sucrose in Milli-Q water and dried in an oven at 37°C. […] The conjugate pad was attached to the membrane and the prepared strips were kept in a desiccator until use.
# Different concentrations of caffeine in 2% (w/v) BSA were prepared in respective wells of a low-binding 96-well microplate. The test strips were placed into each well vertically for 3 min, after which they were removed and left to dry. Images of the test strips were taken and analysed by ImageJ software. The grey level of the pixels in each test line was measured and subtracted from the background.
# The effects of applying different concentrations of caffeine to the LFA were investigated to determine the working range and sensitivity that can be achieved for caffeine detection. The LFA test strips were prepared according to the design of the assay shown in Figure 3 and run using different concentrations of caffeine ranging from 1 ng/mL to 100 µg/mL. The optimised running buffer included glycerol as an agent to regulate wicking rate, and BSA and Tween-20 as blocking agents to reduce non-specific binding.
# As well as visual inspection, the signal intensity of the test lines was analysed using ImageJ software. The signal intensities of test lines 1 and 2 at different caffeine concentrations were plotted in a semi-log graph as shown in Figure 11 (results were measured in triplicates). […] Table 1 - Semi-quantitative analysis of caffeine concentration based on the ratio between the signal intensities of test lines 1 and 2.
# anti-caffeine antibody [4] = tested on: anti-caffeine antibody
# Method: as §1, §2, §3
# [5] = strips kept in a desiccator for seven days at room temperature
# Chain of avidin (P02701 25-152, species assumed): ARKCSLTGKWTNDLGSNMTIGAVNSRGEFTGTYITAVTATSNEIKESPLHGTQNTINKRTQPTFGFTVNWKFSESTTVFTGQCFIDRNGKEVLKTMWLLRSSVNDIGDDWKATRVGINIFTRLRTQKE
smiles,measurement,setting,value
"O=C(O)c1ccccc1N=Nc1ccc(O)cc1 [HABA, 4'-hydroxyazobenzene-2-carboxylic acid]",binding affinity for avidin,avidin,6e+06 M⁻¹
"O=C(O)Cc1ccc(O)c([N+](=O)[O-])c1 [NHPA, 3-nitro-4-hydroxyphenylacetic acid]",decrease of the antibody line's intensity,[1]; 250 ng/ml of NHPA in urine samples (synthetic urine),over 90%
same,threshold of the assay for NHPA detection in urine,"[1]; synthetic urine, also printed as 250 ± 80 ng/ml",170 to 330 ng/mL
O=C(O)CCCC[C@@H]1SC[C@@H]2NC(=O)N[C@@H]21 [biotin],binding affinity for avidin,avidin,1.3e+15 M⁻¹
Cn1c(=O)c2c(ncn2C)n(C)c1=O [caffeine],"detection limit, determined by the concentration of caffeine that results in 10% inhibition",anti-caffeine antibody [2]; BSA-biotin-caffeine conjugate (20 µg/mL) as competitor,0.03 ng/mL
same,IC50 value,"anti-caffeine antibody [2]; fixed BSA-biotin-caffeine conjugate (20 µg/mL), free caffeine varied, absorbance at 450 nm, dose response fit",1 ng/mL
same,IC50 value of test line 1,"anti-caffeine antibody [3]; anti-caffeine antibody line, signal intensity by ImageJ, triplicates, fresh strips",5 ng/mL
same,IC50 value of test line 2,"anti-caffeine antibody [3]; avidin line, signal intensity by ImageJ, triplicates, fresh strips",8 ng/mL
same,IC50 value of test line 1,anti-caffeine antibody [3]; [5],3 ng/mL
same,IC50 value of test line 2,anti-caffeine antibody [3]; [5],11 ng/mL
same,visual detection limit,"anti-caffeine antibody [3]; test line 1 only (no colour developed), no calibration",10000 ng/mL
same,visual detection limit,"anti-caffeine antibody [3]; test line 2, strips stored seven days at room temperature",10 ng/mL
same,visual detection limit,"anti-caffeine antibody [3]; with the second test line (test line 2), fresh strips",10 ng/mL
same,IC50,anti-caffeine antibody [4],7 ng/mL
